According to ChEMBL document CHEMBL1201862, “PubChem BioAssay data set” (2004):
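Five concentrations, 48 hours, 96-well plates. The concentration for 50% growth inhibition is given as GI50.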 Activity calls are given as the source filed them. Cut-off read from the data, not from the text of the source: active = GI50 up to about 1.1 µM and inactive = higher.

Columns and labels:
Experiment in all cases: NCI anticancer screen, dose series, 48 h
786-0 = system: 786-0
HCC 2998 = system: HCC 2998
HCT-116 = system: HCT-116
HL-60 = system: HL-60
HOP-92 = system: HOP-92
HT-29 = system: HT-29
M14 = system: M14
MCF7 = system: MCF7
MDA-MB-435 = system: MDA-MB-435
MDA-N = system: MDA-N
Malme-3M = system: Malme-3M
NCI-H522 = system: NCI-H522
OVCAR-8 = system: OVCAR-8
SF-268 = system: SF-268
SF-295 = system: SF-295
SK-MEL-28 = system: SK-MEL-28
SN12C = system: SN12C
SNB-19 = system: SNB-19
SW-620 = system: SW-620
UACC-257 = system: UACC-257

SMILES | GI50 (786-0) | GI50 (HCC 2998) | GI50 (HCT-116) | GI50 (HL-60) | GI50 (HOP-92) | GI50 (HT-29) | GI50 (M14) | GI50 (MCF7) | GI50 (MDA-MB-435) | GI50 (MDA-N) | GI50 (Malme-3M) | GI50 (NCI-H522) | GI50 (OVCAR-8) | GI50 (SF-268) | GI50 (SF-295) | GI50 (SK-MEL-28) | GI50 (SN12C) | GI50 (SNB-19) | GI50 (SW-620) | GI50 (UACC-257)
OCCO[P+]1(OCCO)n2c3ccc2C(c2ccccc2)=C2C=CC(=N2)C(c2ccccc2)=c2ccc(n21)=C(c1ccccc1)C1=NC(=C3c2ccccc2)C=C1 | 0.0764 µM (active) | 0.0195 µM (active) | 0.0218 µM (active) | 0.0152 µM (active) | 0.0382 µM (active) | 0.0281 µM (active) | 0.163 µM (active) | 0.0267 µM (active) | 0.0296 µM (active) | 0.0344 µM (active) | 0.0408 µM (active) | 0.0405 µM (active) | 0.0767 µM (active) | 0.0263 µM (active) | 0.15 µM (active) | 0.0408 µM (active) | 0.0253 µM (active) | 0.0133 µM (active) | 0.129 µM (active) | 0.0207 µM (active)
O=C(CCBr)N1CCN(C(=O)CCBr)CC1 [PIPOBROMAN] | 57.9 µM (inactive) | 69.3 µM (inactive) | 71.3 µM (inactive) | 13.7 µM (inactive) | 126 µM (inactive) | 103 µM (inactive) | 57.7 µM (inactive) | 52.4 µM (inactive) | 105 µM (inactive) | 89.9 µM (inactive) | 101 µM (inactive) | 63.2 µM (inactive) | 86.3 µM (inactive) | 39.3 µM (inactive) | 57.3 µM (inactive) | 99.8 µM (inactive) | 42.6 µM (inactive) | 80.2 µM (inactive) | 89.9 µM (inactive) | 91 µM (inactive)
Cc1ccc(/N=N/c2c(O)ccc3cc(S(=O)(=O)O)ccc23)c(C)c1 | > 100 µM (inactive) | > 100 µM (inactive) | > 100 µM (inactive) | 92.9 µM (inactive) | > 100 µM (inactive) | > 100 µM (inactive) | > 100 µM (inactive) | > 100 µM (inactive) | > 100 µM (inactive) | > 100 µM (inactive) | > 100 µM (inactive) | > 100 µM (inactive) | > 100 µM (inactive) | > 100 µM (inactive) | > 100 µM (inactive) | > 100 µM (inactive) | > 100 µM (inactive) | > 100 µM (inactive) | > 100 µM (inactive) | > 100 µM (inactive)
COC(=O)/C=C1/OC(c2ccc(OC)cc2)=C(Cl)C1=O | 12.1 µM (inactive) | 21.3 µM (inactive) | 13.5 µM (inactive) | 3.8 µM (inactive) | 23.1 µM (inactive) | 15.4 µM (inactive) | 16.9 µM (inactive) | 8.32 µM (inactive) | 15.6 µM (inactive) | 16.7 µM (inactive) | 16.2 µM (inactive) | 14.6 µM (inactive) | 12.9 µM (inactive) | 16.6 µM (inactive) | 19.9 µM (inactive) | 17.3 µM (inactive) | 18.9 µM (inactive) | 23 µM (inactive) | 12.4 µM (inactive) | 21.6 µM (inactive)
CC[C@@]1(O)C(=O)OCc2c1cc1n(c2=O)Cc2c-1nc1ccc(N)cc1c2CC[Si](C)(C)C | < 0.01 µM (active) | < 0.0111 µM (active) | < 0.01 µM (active) | < 0.01 µM (active) | < 0.025 µM (active) | < 0.01 µM (active) | < 0.01 µM (active) | < 0.01 µM (active) | < 0.01 µM (active) | < 0.01 µM (active) | < 0.0115 µM (active) | < 0.01 µM (active) | < 0.01 µM (active) | < 0.01 µM (active) | < 0.01 µM (active) | 0.0227 µM (active) | < 0.01 µM (active) | < 0.01 µM (active) | < 0.01 µM (active) | < 0.01 µM (active)
C(#CC1(Nc2ccccc2)CCN(Cc2ccccc2)CC1)C1(Nc2ccccc2)CCN(Cc2ccccc2)CC1 | 17.3 µM (inactive) | 0.818 µM (active) | 19.4 µM (inactive) | 1.56 µM (inactive) | 4.95 µM (inactive) | 4.72 µM (inactive) | 11.2 µM (inactive) | 31.5 µM (inactive) | 25.8 µM (inactive) | 14.5 µM (inactive) | 3.17 µM (inactive) | 24.8 µM (inactive) | 21.6 µM (inactive) | 29.1 µM (inactive) | 22.3 µM (inactive) | 4.8 µM (inactive) | 24.2 µM (inactive) | 23.8 µM (inactive) | 11.2 µM (inactive) | 2.08 µM (inactive)
CCOc1cc(/C=N/c2nc3cc4sc(/N=C/c5ccc(O)c(OCC)c5)nc4cc3s2)ccc1O | > 100 µM (inactive) | > 100 µM (inactive) | > 100 µM (inactive) | 3.62 µM (inactive) | > 100 µM (inactive) | 60.4 µM (inactive) | > 100 µM (inactive) | 82 µM (inactive) | > 100 µM (inactive) | 93.3 µM (inactive) | > 100 µM (inactive) | 50.4 µM (inactive) | > 100 µM (inactive) | > 100 µM (inactive) | > 100 µM (inactive) | 21.3 µM (inactive) | 76.7 µM (inactive) | > 100 µM (inactive) | 38.7 µM (inactive) | > 100 µM (inactive)
CCOC(=O)c1c2c(n3ccccc13)C(=O)c1ccccc1C2=O | 19.1 µM (inactive) | 2.55 µM (inactive) | > 100 µM (inactive) | > 100 µM (inactive) | 44.8 µM (inactive) | > 100 µM (inactive) | > 100 µM (inactive) | 46 µM (inactive) | > 100 µM (inactive) | > 100 µM (inactive) | 7.91 µM (inactive) | > 100 µM (inactive) | > 100 µM (inactive) | 31.3 µM (inactive) | > 100 µM (inactive) | > 100 µM (inactive) | > 100 µM (inactive) | 80 µM (inactive) | > 100 µM (inactive) | > 100 µM (inactive)
O=C1C=CC(=O)c2c1ccc1c3ccccc3n(-c3cccc([N+](=O)[O-])c3)c21 | 1.91 µM (inactive) | > 10 µM (inactive) | 1.92 µM (inactive) | 0.474 µM (active) | 2.09 µM (inactive) | > 10 µM (inactive) | 1.73 µM (inactive) | 2.29 µM (inactive) | 2.05 µM (inactive) | 2.2 µM (inactive) | 1.98 µM (inactive) | 1.91 µM (inactive) | 2.83 µM (inactive) | 5.66 µM (inactive) | > 10 µM (inactive) | 2.84 µM (inactive) | 3.96 µM (inactive) | > 10 µM (inactive) | 0.804 µM (active) | 2.62 µM (inactive)
OCCCNCC(O)c1ccc(OCc2ccccc2)c(OCc2ccccc2)c1 (stereo not given) | 7.48 µM (inactive) | 5.3 µM (inactive) | 8.47 µM (inactive) | 6.38 µM (inactive) | 7.59 µM (inactive) | 8.24 µM (inactive) | 17.1 µM (inactive) | 8.04 µM (inactive) | 7.8 µM (inactive) | 9.64 µM (inactive) | 15.8 µM (inactive) | 14.1 µM (inactive) | 11.4 µM (inactive) | 15.3 µM (inactive) | 10.4 µM (inactive) | 8.95 µM (inactive) | 15.3 µM (inactive) | 17.3 µM (inactive) | 8.34 µM (inactive) | 11.2 µM (inactive)
CN(C)CCNc1ccc2nnn3c4ccc(O)cc4c(=O)c1c23 | 2.15 µM (inactive) | 5.48 µM (inactive) | 1.35 µM (inactive) | 1.71 µM (inactive) | 4.59 µM (inactive) | 4.28 µM (inactive) | 7.59 µM (inactive) | 2.44 µM (inactive) | 4.07 µM (inactive) | 1.86 µM (inactive) | 5.05 µM (inactive) | 3.12 µM (inactive) | 1.73 µM (inactive) | 5.38 µM (inactive) | 2.54 µM (inactive) | 10.9 µM (inactive) | 1.85 µM (inactive) | 7.89 µM (inactive) | 1.09 µM (active) | 9.71 µM (inactive)
Oc1ccc2ccccc2c1C(c1ccc(Cl)cc1)c1c(O)ccc2ccccc12 | 3.66 µM (inactive) | 1.34 µM (inactive) | 2.48 µM (inactive) | 2.34 µM (inactive) | 1.65 µM (inactive) | 2.98 µM (inactive) | 4.06 µM (inactive) | 3.57 µM (inactive) | 3.18 µM (inactive) | 3.31 µM (inactive) | 2 µM (inactive) | 2.09 µM (inactive) | 3.33 µM (inactive) | 1.66 µM (inactive) | 3.4 µM (inactive) | 3.87 µM (inactive) | 2.76 µM (inactive) | 4.93 µM (inactive) | 3.18 µM (inactive) | 4.13 µM (inactive)
CC(C)=CCC[C@](C)(O)[C@H]1CC[C@]2(C)[C@@H]1[C@H](O)C[C@@H]1[C@@]3(C)CC[C@H](O[C@@H]4O[C@H](CO)[C@@H](O)[C@H](O)[C@H]4O)C(C)(C)[C@@H]3CC[C@]12C [GINSENOSIDE RH2] | 20.2 µM (inactive) | 27.9 µM (inactive) | 26.2 µM (inactive) | 21 µM (inactive) | 18.7 µM (inactive) | 15.5 µM (inactive) | 27.2 µM (inactive) | 17.3 µM (inactive) | 18.2 µM (inactive) | 19.8 µM (inactive) | 18.4 µM (inactive) | 17.2 µM (inactive) | 17.9 µM (inactive) | 15.8 µM (inactive) | 23 µM (inactive) | 19.9 µM (inactive) | 16.7 µM (inactive) | 20 µM (inactive) | 19.5 µM (inactive) | 20.9 µM (inactive)
CN(C)CCNC(=O)c1cccc2[nH]c(-c3ccncc3)nc12 | 2.04 µM (inactive) | 1.95 µM (inactive) | 4.07 µM (inactive) | 1.01 µM (active) | 6.82 µM (inactive) | 2.61 µM (inactive) | 1.82 µM (inactive) | 3.44 µM (inactive) | 1.84 µM (inactive) | 1.74 µM (inactive) | 1.91 µM (inactive) | 1.88 µM (inactive) | 6.68 µM (inactive) | 11.4 µM (inactive) | 3.02 µM (inactive) | 1.86 µM (inactive) | 9.73 µM (inactive) | 10.7 µM (inactive) | 3.19 µM (inactive) | 1.83 µM (inactive)
